The values that follow come from US20230143604A1, “QW DOSING OF GIP RECEPTOR AGONIST PEPTIDE COMPOUNDS AND USES THEREOF” (TAKEDA PHARMACEUTICAL COMPANY LIMITED, priority 2020, published 2023).

One data set addresses T1, human GIPR (Homo sapiens, UniProt P48546).
T1 construct: HEK-293T cells overexpressing full-length human GIPR; FLAG (N); host or cells: HEK-293T
T1 sequence (P48546 22-466): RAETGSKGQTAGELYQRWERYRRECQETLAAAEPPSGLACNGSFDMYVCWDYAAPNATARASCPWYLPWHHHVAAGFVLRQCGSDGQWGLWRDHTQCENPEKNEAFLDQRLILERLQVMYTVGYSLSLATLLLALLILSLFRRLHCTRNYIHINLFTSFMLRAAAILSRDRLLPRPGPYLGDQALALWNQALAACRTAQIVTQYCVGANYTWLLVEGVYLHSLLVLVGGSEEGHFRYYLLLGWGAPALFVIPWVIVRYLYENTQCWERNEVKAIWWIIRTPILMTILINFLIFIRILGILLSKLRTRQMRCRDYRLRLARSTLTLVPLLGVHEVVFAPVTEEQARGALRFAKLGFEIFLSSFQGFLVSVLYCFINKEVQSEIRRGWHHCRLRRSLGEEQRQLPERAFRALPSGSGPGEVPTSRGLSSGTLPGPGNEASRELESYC
Briefly: Human GIPR agonist activity, intracellular cAMP accumulation. Type of data set: cell-based. As for the experimental part:
Cells are cultured per the manufacturer's protocol in DMEM with 10% fetal bovine serum and 1 μg/mL puromycin and stored in frozen aliquots to be used as assay ready cells. On the day of the assay, cells are removed from frozen storage, washed two times in 1× Kreb's Ringer Buffer (Zenbio, Research Triangle Park, N.C.), and re-suspended to a concentration of 4×10^5 cells/mL in 1× Kreb's Ringer Buffer. […] Cells are incubated with test compound for 1 hr at room temperature in the dark, and cAMP accumulation is measured using the Cisbio HiRange cAMP assay kit (Bedford, Mass.) per the manufacturer's protocol. Anti-cAMP antibody and d2-cAMP tracer reagents diluted in lysis/detection buffer are incubated in the dark for 1 hr, and results are measured on an Envision plate reader (Perkin Elmer, Waltham, Mass.). Data is normalized using 1 nM GIP as 100% activity, and DMSO alone as 0% activity.
For orientation: Changes in cAMP serve as a functional read-out for many G protein-coupled receptors.

Another data set concerns the target T2, human GLP-1R (Homo sapiens, UniProt P43220).
T2 construct: HEK-293T cells overexpressing full-length human GLP-1R; FLAG (N); host or cells: HEK-293T
Briefly: Human GLP1R agonist activity, intracellular cAMP accumulation. Type of data set: cell-based. The conditions noted are these: HEK-293T cells overexpressing human GLP-1R, 1 hr. In outline: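 cAMP accumulation is measured by HTRF after a 1 hr, room-temperature, dark exposure of thawed cells (4×10^5 cells/mL in Krebs Ringer buffer) to compound. Activity is scaled between DMSO alone as 0% and 1 nm GLP-1 as 100%.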

A further data set relates to C57BL/6J mice. Put plainly: Oral glucose tolerance test (OGTT). Type of data set: in vivo. The conditions noted are these: 3 nmol/kg s.c., 24 hours before glucose loading. In outline:
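Peptide or vehicle given s.c. at 0.1, 0.3, 3 or 10 nmol/kg (peptide-dependent), 24 h before oral 50% dextrose at 5 ml/kg unless stated otherwise. Blood glucose read at 0, 15, 30 and 60 min. % inhibition = (1−(AUC cpd−AUC naïve)/(AUC veh−AUC naïve))×100.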

Data set [1] in a line: Human plasma protein binding (PPB). Type of data set: in vitro ADME. Put shortly: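 Peptides spiked at 1000 nmol/L into pooled human K2-EDTA plasma adjusted to pH 7.4, incubated 30 min at 37 °C, then ultracentrifuged at ~450,000 g, 4 °C for 3 h. Fu derived from LC-MS/MS (MRM) peak area ratios, supernatant versus plasma.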
Data set [2] is described as follows: Dog plasma protein binding (PPB). It counts as in vitro ADME. The conditions noted are these: pH 7.4; fraction unbound; dog serum; read-out: Dog PPB (FUplasma). In outline:
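Fraction unbound (Fu,plasma) is given as a percentage. It was measured with the method and analysis of the human protein-binding protocol, but using dog serum in place of human serum.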

Data set [3] can be described thus: Solubility in phosphate buffer pH 7.4. Put shortly:
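Solubility at pH 7.4 determined by stepwise addition of 200 mM phosphate buffer in 100 μL increments to 3 mg peptide, mixing briefly each time, until no insoluble material remained, then measured by liquid chromatography.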

For the next data set, the system named is male ferrets. It counts as in vivo. The conditions noted are these: in vivo, sc, 24 h. On the procedure:
1. Effect of subcutaneously administered GIP receptor agonist peptide in morphine-induced acute emetic model.
To evaluate the antiemetic effect, the GIP receptor agonist peptides other than natural human GIP are subcutaneously administered into male ferrets 24 hrs before morphine administration. Up to 60 minutes after morphine administration, the condition of the ferrets is monitored to record the frequencies and time points of abdominal contraction motions, vomiting behaviors, licking with the tongue, and fidgety behavior occurring. GIP receptor agonist peptide compounds of the present disclosure dosed at 0.3-10 nmol/kg attenuated the morphine (0.6 mg/kg, s.c.)-induced emesis in the ferrets.
GIP receptor agonist peptides are dissolved with a vehicle (0.09 w/v % tween 80/10% DMSO/saline), respectively, to prepare test solutions. […] of the test solutions and the vehicle are subcutaneously administered to ferrets (4 in each group), respectively. At the time of each of 4 or 24 hours after administration, 0.6 mg/kg of morphine is subcutaneously administered.

Data set [4] is described as follows: Pharmacokinetics in dog after IV and SC dosing. The conditions noted are these: in vivo. Put shortly:
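Dogs were dosed IV or SC at 1 mL/kg with peptide at 3 nmol/mL in 10% DMSO/0.09% Polysorbate/PBS pH 7.4. K2-EDTA plasma was sampled to 336 h, and peptide was quantified by LCMS to derive half-life.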

The mark [5] stands for this setting: both sexes, pH 7.4, fraction unbound, human plasma, 1000 nmol/L peptide, ultracentrifugation, read-out: Human PPB (FUplasma).

Where two headings read alike, the source gives them in different places. Starred links: 1 amine or outer side, 2 acyl side, 3 side chain; linkers in the order of their positions; H or OH if unused. Non-standard residues stand in square brackets, D forms with d. Residues, ends and D or L forms follow the SMILES beside them. Groups on a side chain read outwards from the residue. *: point of attachment. C18 diacid = O=C(O)CCCCCCCCCCCCCCCCC(=O)*; γGlu = O=C(O)[C@H](CCC(=O)[*:2])N[*:1]; NMeY = CN[C@@H](Cc1ccc(O)cc1)C(=O)O; AEEA = NCCOCCOCC(=O)O; Aib = CC(C)(N)C(=O)O

T2 sequence (P43220 24-463): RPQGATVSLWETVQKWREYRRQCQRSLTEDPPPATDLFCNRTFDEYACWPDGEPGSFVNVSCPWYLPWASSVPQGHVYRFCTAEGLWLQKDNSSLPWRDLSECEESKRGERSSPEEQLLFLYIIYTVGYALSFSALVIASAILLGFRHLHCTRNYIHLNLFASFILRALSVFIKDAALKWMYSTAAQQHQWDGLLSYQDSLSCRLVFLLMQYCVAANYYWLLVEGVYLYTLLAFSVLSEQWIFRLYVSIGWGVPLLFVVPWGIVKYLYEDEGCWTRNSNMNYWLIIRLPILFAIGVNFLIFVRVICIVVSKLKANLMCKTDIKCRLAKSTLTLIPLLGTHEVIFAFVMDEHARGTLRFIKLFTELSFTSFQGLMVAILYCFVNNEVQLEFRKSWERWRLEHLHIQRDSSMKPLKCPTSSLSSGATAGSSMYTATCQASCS

Regarding `CC[C@H](C)[C@H](NC(=O)[C@H](CO)NC(=O)[C@H](Cc1ccc(O)cc1)NC(=O)[C@H](CC(=O)O)NC(=O)[C@H](CO)NC(=O)[C@@H](NC(=O)[C@H](Cc1ccccc1)NC(=O)[C@@H](NC(=O)CNC(=O)[C@H](CCC(=O)O)NC(=O)C(C)(C)NC(=O)[C@H](Cc1ccc(O)cc1)NC)[C@@H](C)O)[C@@H](C)CC)C(=O)N[C@@H](C)C(=O)N[C@@H](CCCCNC(=O)CNC(=O)CNC(=O)CNC(=O)CNC(=O)CNC(=O)CCCCCCCCCCCCCCCCC(=O)O)C(=O)N[C@@H](CC(=O)O)C(=O)N[C@@H](CCCNC(=N)N)C(=O)NC(C)(C)C(=O)N[C@@H](C)C(=O)N[C@@H](CCC(N)=O)C(=O)NC(C)(C)C(=O)N[C@@H](CC(N)=O)C(=O)N[C@@H](Cc1ccccc1)C(=O)N[C@H](C(=O)N[C@@H](CC(N)=O)C(=O)N[C@@H](Cc1c[nH]c2ccccc12)C(=O)N[C@@H](CC(C)C)C(=O)N[C@@H](CC(C)C)C(=O)N[C@@H](C)C(=O)N[C@@H](CCC(N)=O)C(=O)N[C@@H](CCCNC(=N)N)C(=O)N1CCC[C@H]1C(=O)N[C@@H](CO)C(=O)N[C@@H](CO)C(=O)NCC(=O)N[C@@H](C)C(=O)N1CCC[C@H]1C(=O)N1CCC[C@H]1C(=O)N1CCC[C@H]1C(=O)N[C@@H](CO)C(=O)O)C(C)C` [Compound 44], the EC50 (in general, the midpoint of the concentration-response curve) at human GIPR came to 0.0017 nM; at human GLP-1R (Human GLP1R cAMP EC50, HEK293T (nM)), 10.7 nM. Moreover, the “Oral Glucose Tolerance Test Percent decrease in blood glucose AUC (%) over 60 mins” value in the data set on C57BL/6J mice is on record as 119% (3 nmol/kg). Also, the fraction unbound at 30 min, 1000 nmol/L was found to be 0.0007 in data set [1] (setting [5]) and 0.0004 in data set [2]. Further, the solubility (as a rule, how much of the substance goes into solution per volume) in data set [3] (pH 7.4, aqueous buffer, pH 7.4 Phosphate Buffer - Solubility, 200 mM Phosphate buffer pH 7.4) was ≥ 30 mg/mL; in data set [3] (pH 7.4, solubility in phosphate buffer at pH 7.4, 200 mM phosphate buffer pH 7.4), ≥ 15 mg/mL.

Turning to `CC[C@H](C)[C@H](NC(=O)[C@H](Cc1ccccc1)NC(=O)[C@@H](NC(=O)CNC(=O)[C@H](CCC(=O)O)NC(=O)C(C)(C)NC(=O)[C@H](Cc1ccc(O)cc1)NC)[C@@H](C)O)C(=O)N[C@@H](CO)C(=O)N[C@@H](CC(=O)O)C(=O)N[C@@H](Cc1ccc(O)cc1)C(=O)N[C@@H](CO)C(=O)N[C@H](C(=O)NC(C)(C)C(=O)N[C@@H](CC(C)C)C(=O)N[C@@H](CC(=O)O)C(=O)N[C@@H](CCCNC(=N)N)C(=O)NC(C)(C)C(=O)N[C@@H](C)C(=O)N[C@@H](CCC(N)=O)C(=O)NC(C)(C)C(=O)N[C@@H](CCCCNC(=O)COCCOCCNC(=O)COCCOCCNC(=O)CC[C@H](NC(=O)CC[C@H](NC(=O)CCCCCCCCCCCCCCCCC(=O)O)C(=O)O)C(=O)O)C(=O)N[C@@H](Cc1ccccc1)C(=O)N[C@H](C(=O)N[C@@H](CC(N)=O)C(=O)N[C@@H](Cc1c[nH]c2ccccc12)C(=O)N[C@@H](CC(C)C)C(=O)N[C@@H](CC(C)C)C(=O)N[C@@H](C)C(=O)N[C@@H](CCC(N)=O)C(=O)N[C@@H](CCCNC(=N)N)C(=O)NCC(=O)O)C(C)C)[C@@H](C)CC` [Compound 72, Me-Y-Aib-E-G-T-F-I-S-D-Y-S-I-Aib-L-D-R-Aib-A-Q-Aib-Km-F-V-N-W-L-L-A-Q-R-G-OH] (H-[NMeY][Aib]EGTFISDYSI[Aib]LDR[Aib]AQ[Aib]K([AEEA-AEEA-γGlu-γGlu-C18 diacid])FVNWLLAQRG-OH), the “% inhibition of emetic events at doses (nmol/kg) and timepoints shown in ferret morphine model” value with male ferrets is given as 100% (3 nmol/kg); 100%. Besides, the figures for the fraction unbound in data set [1] (setting [5]) and in data set [2] were 0.0036 and 0.0062, respectively. Besides, the “free unbound peptide in human plasma (in words)” value in data set [1] (judged for once per week (QW) dosing) is on record as “optimum free unbound peptide”. Besides, the solubility in data set [3] (pH 7.4) is ≥ 15 mg/mL; in data set [3] (pH 7.4, aqueous buffer), ≥ 60 mg/mL. Further, the half-life in data set [4] (IV 3 nmol/kg, read-out: IV T½ (converted)) was 92 h. The MRT last (usually the average time that molecules of a dose stay in the body) in data set [4] (SC 3 nmol/kg, read-out: SC MRT 0-last) came to 125 h.

For `CC[C@H](C)[C@H](NC(=O)[C@H](Cc1ccccc1)NC(=O)[C@@H](NC(=O)CNC(=O)[C@H](CCC(=O)O)NC(=O)C(C)(C)NC(=O)[C@@H](N)Cc1ccc(O)cc1)[C@@H](C)O)C(=O)N[C@@H](CO)C(=O)N[C@@H](CC(=O)O)C(=O)N[C@@H](Cc1ccc(O)cc1)C(=O)N[C@@H](CO)C(=O)N[C@H](C(=O)NC(C)(C)C(=O)N[C@@H](CCCCNC(=O)CNC(=O)CNC(=O)CNC(=O)CNC(=O)CNC(=O)CCCCCCCCCCCCCCCCC(=O)O)C(=O)N[C@@H](CC(=O)O)C(=O)N[C@@H](CCCNC(=N)N)C(=O)NC(C)(C)C(=O)N[C@@H](C)C(=O)N[C@@H](CCC(N)=O)C(=O)NC(C)(C)C(=O)N[C@@H](CC(=O)O)C(=O)N[C@@H](Cc1ccccc1)C(=O)N[C@H](C(=O)N[C@@H](CC(N)=O)C(=O)N[C@@H](Cc1c[nH]c2ccccc12)C(=O)N[C@@H](CC(C)C)C(=O)N[C@@H](CC(C)C)C(=O)N[C@@H](C)C(=O)N[C@@H](CCC(N)=O)C(=O)N[C@@H](CCCNC(=N)N)C(=O)NCC(=O)O)C(C)C)[C@@H](C)CC` [Compound 137], the EC50 at human GIPR (HEK-293T cells overexpressing human GIPR, cAMP accumulation, 1 hr, read-out: Human GIPR cAMP EC50, HEK293T) worked out at 0.0013 nM; on human GLP-1R (read-out: Human GLP1R cAMP EC50, HEK293T) it was 3.47 nM. Besides, the “Oral Glucose Tolerance Test Percent decrease in blood glucose AUC (%) over 60 mins” value in the data set with C57BL/6J mice was 23% (3 nmol/kg). Moreover, the solubility in data set [3] (pH 7.4) was ≥ 15 mg/mL; in data set [3] (pH 7.4, aqueous buffer) it was ≥ 30 mg/mL.
